{"source": "patent US20130059814A1", "about": "“ANTI-INFLAMMATORY DERMATOLOGICAL COMPOSITION COMPRISING CORTICOSTEROIDS AND HYALURONATE FRAGMENTS, AND USES THEREOF” (priority 2007, published 2013)", "key": {"C57B1/6 mice": {"system": "C57B1/6 mice", "assay": "Inflammation induced by TPA in the ear of mice: epidermis and dermis thickness, dermal cellularity", "type": "in vivo", "conditions": "0.005% TPA on ears, PC 0.05%, HAF 1%, 4 days", "description": "(§1) Skin inflammation was induced by topical application of 0.005% TPA (12-o-tetradecanoylphorbol-13-acetate) in acetone, on the ears of C57B1/6 mice; the control animals received the same volume of acetone. Clobetasol propionate (0.05%) and the HAFs (1%) were dissolved in 100 μL of carrier, and were applied together with TPA for 4 days; the control animals received the same volume of carrier. The inflammation was determined by measuring the thickness of the ears with a clip and the dermis-epidermis thickness in optical microscopy and by assaying myeloperoxidase activity. The animals were sacrificed 24 hrs after the last application. 6 mm biopsies were sampled, frozen in liquid nitrogen and then stored at −70° C. until the day of the analysis. The remainder of the tissue was set with formol and analyzed by immunohistology.\nThe epidermal inflammation induced by the application of Phorbol TPA ester was measured, after application of TPA, and then after treatment with clobetasol propionate, and after treatment with the composition comprising clobetasol propionate and HAFs. Ten measurements were made per mouse. The anti-inflammation index is the ratio between the control treated with TPA, and with the composition TPA+PC or TPA+PC+HAF.\nThe dermal inflammation induced by applying Phorbol TPA ester was measured, after application of TPA, and then after treatment with clobetasol propionate and after treatment with the composition comprising clobetasol propionate and HAFs. Ten measurements were made per mouse, the results are grouped in the Table 6 below. The anti-inflammation index in the ratio between the control treated with TPA, and with the association TPA+PC or TPA+PC+HAF.\nDermal cellularity induced by applying Phorbol TPA ester was measured, after application of TPA, and then after treatment with clobetasol propionate, and after treatment with the composition comprising clobetasol propionate and HAFs. Ten measurements were made per mouse. The anti-inflammation index is the ratio between the control treated with TPA, and with the association TPA+PC or TPA+PC+HAF."}, "myeloperoxidase": {"system": "myeloperoxidase", "assay": "Myeloperoxidase activity in supernatant of homogenates of TPA-treated ear biopsies", "type": "in vivo, mice", "conditions": "0.005% TPA on ears, PC 0.05%, HAF 1%, 4 days", "description": "as §1\nThe myeloperoxidase activity was determined in the supernatant of the homogenates of the ear biopsies. […] The enzymatic activity of myeloperoxidase was determined according to the method of Bradley et al., modified for using the photometric plate reader. […] The optical density was measured at 450 nm. […] The expression of CD44, CD44v3 and pro-HB-EGF was analyzed by immunohistochemistry and by Western blotting according to methods already described (PLoS Med 3 (12): e493, 2006). […]"}, "Hairless SKH mice": {"system": "Hairless SKH mice", "assay": "Skin atrophy protocol: dermis-epidermis thickness after topical corticosteroid with or without HA fragments", "type": "in vivo", "from_the_text": "Hairless SKH mice received twice daily for 5 days a topical treatment on the back with a steroid (0.05% clobetasol propionate or 0.1% desonide) with or without HA fragments (with a molecular weight comprised between 20 and 500 kDa, and obtained by the method including the treatment steps with ultrasound and filtering as described above). These fragments will be designated in the following examples by HAF. Dermal and epidermal atrophy and the concentration of skin hyaluronate were respectively determined by measuring the dermis-epidermis thickness in optical microscopy and by ELISA.\nThe epidermal and cutaneous (distance between the granular layer and the sweating glands) thicknesses were measured by an ocular micrometer. Ten measurements were made per mouse. The prevention index is the ratio between the control treated with clobetasol propionate (PC) alone and the PC +HAF composition.\nThe epidermal thickness was measured with an ocular micrometer after treatment with different desonide concentrations. Ten measurements were made per mouse. The prevention index is the ratio, at a determined corticosteroid concentration, between the control treated by the corticosteroid alone and by the corticosteroid composition+HAF.\nThe epidermal thickness was measured with an ocular micrometer after treatment with different corticosteroids. Ten measurements were made per mouse. The prevention index is the ratio between the control treated by the corticosteroid alone and the corresponding composition comprising the HAFs.\nThe non-treated hyaluronic acid, the fragments obtained by action of hyaluronidase, as well as the HAFs were compared for their preventive effects. The epidermal thickness was measured with an ocular micrometer. Ten measurements were made per mouse. The prevention index is the ratio between the control treated with the corticosteroid alone and with each corticosteroid composition+HAF."}, "hairless SKH1 mice": {"system": "hairless SKH1 mice", "conditions": "JEADV 19: 124, 2005; cited from earlier work"}, "[1]": {"conditions": "Table 3: corticosteroid 0.05%, with or without HAF"}}, "data": [{"smiles": "CCCCCCCCCCCCCC(=O)O[C@@H]1[C@@H](C)[C@@]2(O)[C@@H](C=C(CO)C[C@]3(O)C(=O)C(C)=C[C@@H]23)[C@@H]2C(C)(C)[C@]12OC(C)=O", "note": "[TPA, 12-o-tetradecanoylphorbol-13-acetate]", "values": [{"measurement": "Dermal cellularity % of control", "setting": "C57B1/6 mice", "value": "789 % of control"}, {"measurement": "Dermis inflammation % of non-treated control", "setting": "C57B1/6 mice", "value": "226 % of non-treated control"}, {"measurement": "Epidermis inflammation % of control", "setting": "C57B1/6 mice", "value": "438 % of control"}, {"measurement": "myeloperoxidase % of control", "setting": "myeloperoxidase", "value": "3273 % of control"}]}, {"smiles": "CCC(=O)O[C@]1(C(=O)CCl)[C@@H](C)C[C@H]2[C@@H]3CCC4=CC(=O)C=C[C@]4(C)[C@@]3(F)[C@@H](O)C[C@@]21C", "note": "[PC, clobetasol propionate]", "values": [{"measurement": "Cutaneous thickness % of non-treated control", "setting": "Hairless SKH mice; PC 0.05%, HAF 1% where present, distance between granular layer and sweating glands", "value": "56 % of non-treated control"}, {"measurement": "Epidermal thickness % of non-treated control", "setting": "Hairless SKH mice; PC 0.05%, HAF 1% where present, topical on the back twice daily for 5 days", "value": "33 % of non-treated control"}, {"measurement": "Epidermal thickness % of non-treated control", "setting": "Hairless SKH mice; [1]", "value": "28 % of non-treated control"}, {"measurement": "Epidermal thickness % of non-treated control", "setting": "Hairless SKH mice; Table 4: 0.05% Clobetasol alone or with HA form", "value": "28 % of non-treated control"}]}, {"smiles": "CC1(C)O[C@@H]2C[C@H]3[C@@H]4CCC5=CC(=O)C=C[C@]5(C)[C@H]4[C@@H](O)C[C@]3(C)[C@]2(C(=O)CO)O1", "note": "[Desonide, desonide]", "values": [{"measurement": "Epidermal thickness % of non-treated control", "setting": "Hairless SKH mice; Desonide 0.025%, HAF 0 or 1%", "value": "72 % of non-treated control"}, {"measurement": "Epidermal thickness % of non-treated control", "setting": "Hairless SKH mice; Desonide 0.05%, HAF 0 or 1%", "value": "62 % of non-treated control"}, {"measurement": "Epidermal thickness % of non-treated control", "setting": "Hairless SKH mice; Desonide 0.075%, HAF 0", "value": "55 % of non-treated control"}, {"measurement": "Epidermal thickness % of non-treated control", "setting": "Hairless SKH mice; Desonide 0.1%, HAF 0 or 1%", "value": "46 % of non-treated control"}, {"measurement": "Epidermal thickness % of non-treated control", "setting": "Hairless SKH mice; [1]", "value": "62 % of non-treated control"}, {"measurement": "Epidermal thickness % of non-treated control", "setting": "Hairless SKH mice; Table 4: Desonide 0.1% alone or with HA form", "value": "46 % of non-treated control"}]}, {"smiles": "C[C@H]1C[C@H]2[C@@H]3CCC4=CC(=O)C=C[C@]4(C)[C@@]3(F)[C@@H](O)C[C@]2(C)[C@@]1(O)C(=O)CO", "note": "[Betamethasone]", "values": [{"measurement": "Epidermal thickness % of non-treated control", "setting": "Hairless SKH mice; [1]", "value": "53 % of non-treated control"}]}, {"smiles": "CC1=C(/C=C/C(C)=C/C=C/C(C)=C/C=O)C(C)(C)CCC1", "note": "[retinaldehyde]", "values": [{"measurement": "Prevention of epidermal atrophy induced by clobetasol propionate", "setting": "hairless SKH1 mice", "value": "prevents epidermal atrophy induced by a corticosteroid, clobetasol propionate"}]}]}
